Measured values from ChEMBL document CHEMBL1201862, “PubChem BioAssay data set” (2004).
“And” between values parts separate entries of the source, which are not always exact repeats. Equal values may be shown once.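 1) Cells in 96-well plates. 2) Compound, 48 h, 5 concentrations. 3) Linear interpolation between surrounding doses. 4) Unreached endpoint = highest concentration. GI50 is the concentration that inhibits growth by half.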 The source made the active and inactive calls. Rule as the data show it: active = GI50 up to about 1.1 µM and inactive = higher.

Experiments:
Test in all cases: DTP human tumour cell line panel, 48 h
SN12C = test system: SN12C
A549 = test system: A549
HOP-92 = test system: HOP-92
M14 = test system: M14
NCI-H226 = test system: NCI-H226
COLO 205 = test system: COLO 205
UACC-62 = test system: UACC-62
MDA-MB-231 = test system: MDA-MB-231
MDA-MB-435 = test system: MDA-MB-435
K562 = test system: K562
IGROV-1 = test system: IGROV-1
SK-MEL-5 = test system: SK-MEL-5
CCRF-CEM = test system: CCRF-CEM
RXF 393 = test system: RXF 393
HCC 2998 = test system: HCC 2998
786-0 = test system: 786-0
MDA-N = test system: MDA-N
HCT-116 = test system: HCT-116
SK-OV-3 = test system: SK-OV-3
OVCAR-3 = test system: OVCAR-3

Structure (SMILES)	GI50 (SN12C)	GI50 (A549)	GI50 (HOP-92)	GI50 (M14)	GI50 (NCI-H226)	GI50 (COLO 205)	GI50 (UACC-62)	GI50 (MDA-MB-231)	GI50 (MDA-MB-435)	GI50 (K562)	GI50 (IGROV-1)	GI50 (SK-MEL-5)	GI50 (CCRF-CEM)	GI50 (RXF 393)	GI50 (HCC 2998)	GI50 (786-0)	GI50 (MDA-N)	GI50 (HCT-116)	GI50 (SK-OV-3)	GI50 (OVCAR-3)
COc1cccc(-c2cc(O)c3cc(N4CCN(C)CC4)ccc3n2)c1	2.92 µM (inactive)	2.39 µM (inactive)	1.06 µM (active)	1.99 µM (inactive)	1.71 µM (inactive)	1.67 µM (inactive)	1.28 µM (inactive)	3.34 µM (inactive)	0.225 µM (active)	0.628 µM (active)	3.2 µM (inactive)	0.454 µM (active)	0.986 µM (active)	1.18 µM (inactive)	2.01 µM (inactive)	2.96 µM (inactive)	0.265 µM (active)	0.543 µM (active)	2.82 µM (inactive)	
Cc1cc2c(cc1C)NC1=C(O)C(c3c[nH]c4ccc(COc5ccccc5)cc34)OC1=N2 (stereo not drawn)	> 100 µM (inactive)	> 100 µM (inactive)	33.3 µM (inactive)	> 100 µM (inactive)	58.7 µM (inactive)	> 100 µM (inactive)	> 100 µM (inactive)	22.3 µM (inactive)	> 100 µM (inactive)	> 100 µM (inactive)	60.8 µM (inactive)	> 100 µM (inactive)		39.6 µM (inactive)	17.1 µM (inactive)	30.5 µM (inactive)	> 100 µM (inactive)	96.8 µM (inactive)	33.6 µM (inactive)	> 100 µM (inactive)
Cn1c(=S)c2nc(SCc3cccnc3)[nH]c2n(C)c1=O	> 100 µM (inactive)	> 100 µM (inactive)	> 100 µM (inactive)	> 100 µM (inactive)	> 100 µM (inactive)	> 100 µM (inactive)	> 100 µM (inactive)	> 100 µM (inactive)	> 100 µM (inactive)	> 100 µM (inactive)	> 100 µM (inactive)	> 100 µM (inactive)		> 100 µM (inactive)	> 100 µM (inactive)	> 100 µM (inactive)	> 100 µM (inactive)	> 100 µM (inactive)	> 100 µM (inactive)	> 100 µM (inactive)
O=C(COC(=O)c1ccccc1)c1ccc(Br)cc1	10.4 µM (inactive)	17.2 µM (inactive)	14.6 µM (inactive)	14.5 µM (inactive)		13.6 µM (inactive)	13 µM (inactive)	14.3 µM (inactive)	6.78 µM (inactive)	4.4 µM (inactive)	1 µM (active)	14.5 µM (inactive)	4.04 µM (inactive)	2.75 µM (inactive)	13.3 µM (inactive)	2.41 µM (inactive)	4.71 µM (inactive)	8.95 µM (inactive)	19.1 µM (inactive)	12.9 µM (inactive)
Cc1ccc(S(=O)(=O)NCCSS(=O)(=O)c2ccc(C)cc2)cc1	29.7 µM (inactive)	25.9 µM (inactive)	> 100 µM (inactive)		24.3 µM (inactive)	56 µM (inactive)		37.7 µM (inactive)	22.3 µM (inactive)	30.7 µM (inactive)		20.7 µM (inactive)	24.3 µM (inactive)	33.8 µM (inactive)	62.5 µM (inactive)		23.1 µM (inactive)	15.1 µM (inactive)	> 100 µM (inactive)	
N#Cc1c(NCCc2ccc(F)cc2)c2ccccc2n2c1nc1ccccc12	15.1 µM (inactive)	33.7 µM (inactive)	3.55 µM (inactive)	42 µM (inactive)	16.7 µM (inactive)	71.6 µM (inactive)	7.6 µM (inactive)	10 µM (inactive)	73.5 µM (inactive)	> 100 µM (inactive)	13.4 µM (inactive)		> 100 µM (inactive)	10.7 µM (inactive)	40.3 µM (inactive)	4.46 µM (inactive)	21.3 µM (inactive)	19 µM (inactive)	20.1 µM (inactive)	13.9 µM (inactive)
O=C1/C(=C/c2cccc([N+](=O)[O-])c2)N=C(c2ccccc2)N1c1nc2c(Cl)cc(Cl)cc2s1	22.4 µM (inactive)	21.1 µM (inactive)	24.6 µM (inactive)	21.8 µM (inactive)		31.8 µM (inactive)	29.2 µM (inactive)	29.4 µM (inactive)	20.8 µM (inactive)	31.1 µM (inactive)	23.2 µM (inactive)	16.9 µM (inactive)	10.4 µM (inactive)	27.9 µM (inactive)	27.5 µM (inactive)	31.4 µM (inactive)	18.4 µM (inactive)	19.5 µM (inactive)	31.2 µM (inactive)	17.1 µM (inactive)
COc1ccc2c(O)c3[n+](cc2c1OC)CCc1cc2c(cc1-3)OCO2	> 100 µM (inactive)	> 100 µM (inactive)	> 100 µM (inactive)	> 100 µM (inactive)	> 100 µM (inactive)	> 100 µM (inactive)	37.4 µM (inactive)	> 100 µM (inactive)	24.8 µM (inactive)	38.5 µM (inactive)	91.8 µM (inactive)	99.1 µM (inactive)	52.8 µM (inactive)	25.4 µM (inactive)	> 100 µM (inactive)		33.6 µM (inactive)	41.8 µM (inactive)	> 100 µM (inactive)	> 100 µM (inactive)
O=C(O)c1cccc2c1/C(=N/Nc1ccccc1)CC2			> 100 µM (inactive)	16.6 µM (inactive)	19.9 µM (inactive)			> 100 µM (inactive)	> 100 µM (inactive)	> 100 µM (inactive)	> 100 µM (inactive)	> 100 µM (inactive)	> 100 µM (inactive)	> 100 µM (inactive)	> 100 µM (inactive)	> 100 µM (inactive)	> 100 µM (inactive)	> 100 µM (inactive)	> 100 µM (inactive)	> 100 µM (inactive)
C/C=C(/C)C(=O)O[C@H]1[C@H]2[C@@H]([C@@H](OC(C)=O)[C@H](C)C(=O)[C@@]34C[C@@H](C)C(=O)[C@]3(/C=C(\C)[C@H]1OC(C)=O)O4)C2(C)C	2.42 µM (inactive)		3.08 µM (inactive)	2.47 µM (inactive)	3.51 µM (inactive)	2.6 µM (inactive)	3.35 µM (inactive)	3.72 µM (inactive)	2.99 µM (inactive)	2.6 µM (inactive)	4.5 µM (inactive)	3.64 µM (inactive)	0.463 µM (active)	3.6 µM (inactive)	5.16 µM (inactive)	2.67 µM (inactive)	1.27 µM (inactive)	3.1 µM (inactive)	16 µM (inactive)	3.95 µM (inactive)
NCCCN(CCCCN(CCCN)Cc1ccc2ccccc2c1)Cc1ccc2ccccc2c1	1.57 µM (inactive)	1.68 µM (inactive)	2.83 µM (inactive)	1.97 µM (inactive)	1.8 µM (inactive)	2.55 µM (inactive)	2.08 µM (inactive)	3.18 µM (inactive)	2.2 µM (inactive)	3.51 µM (inactive)	1.82 µM (inactive)	1.92 µM (inactive)	27 µM (inactive)	1.95 µM (inactive)	2.86 µM (inactive)	1.62 µM (inactive)	1.88 µM (inactive)	2.54 µM (inactive)	1.86 µM (inactive)	
CC1=NN(c2cccc(Cl)c2)C2(SCC(=O)N2c2nc3ccccc3s2)C1=CC=Cc1ccccc1 (stereo not drawn)			17.7 µM (inactive)	32.1 µM (inactive)	53 µM (inactive)			27.9 µM (inactive)	31 µM (inactive)	13.3 µM (inactive)	31.3 µM (inactive)	18.9 µM (inactive)	3.4 µM (inactive)	25.5 µM (inactive)	32.3 µM (inactive)	35.2 µM (inactive)	34.1 µM (inactive)	22.6 µM (inactive)	27.4 µM (inactive)	39.6 µM (inactive)
Cc1ccc(-c2nc3cc(F)c(N4CCN(C)CC4)cc3[nH]2)cc1	54.1 µM (inactive)	19.1 µM (inactive)	66.5 µM (inactive)	16.7 µM (inactive)	8.3 µM (inactive)	15.9 µM (inactive)	16.3 µM (inactive)	71.3 µM (inactive)	22.4 µM (inactive)	16.4 µM (inactive)	22.7 µM (inactive)	11.4 µM (inactive)	23.4 µM (inactive)	18.5 µM (inactive)	11.9 µM (inactive)	17.6 µM (inactive)	32.4 µM (inactive)	19.6 µM (inactive)	23.4 µM (inactive)	
CC1(C)OC2OC(C(COS(=O)(=O)C(F)(F)F)N=[N+]=[N-])C(OC(=O)c3ccccc3)C2O1 (stereo not drawn)	> 100 µM (inactive)	> 100 µM (inactive)	> 100 µM (inactive)	> 100 µM (inactive)	> 100 µM (inactive)	> 100 µM (inactive)	> 100 µM (inactive)	> 100 µM (inactive)	> 100 µM (inactive)	> 100 µM (inactive)		> 100 µM (inactive)	> 100 µM (inactive)	> 100 µM (inactive) and 59.3 µM (inactive)	> 100 µM (inactive)	> 100 µM (inactive)	> 100 µM (inactive)	> 100 µM (inactive)	> 100 µM (inactive)	> 100 µM (inactive)
C1CSCCSCCSCCSC1	> 100 µM (inactive)	> 100 µM (inactive)	> 100 µM (inactive)	> 100 µM (inactive)	> 100 µM (inactive)	> 100 µM (inactive)	> 100 µM (inactive)	> 100 µM (inactive)	> 100 µM (inactive)		> 100 µM (inactive)	> 100 µM (inactive)		> 100 µM (inactive)	> 100 µM (inactive)		> 100 µM (inactive)	> 100 µM (inactive)	> 100 µM (inactive)	> 100 µM (inactive)
